According to patent US20100267561A1, “HERBICIDAL PYRIDAZINONE DERIVATIVES” (priority 2007, published 2010):

What was measured:
Assay type in all cases: in vivo
[1] = test system: bermudagrass (Cynodon dactylon); test: Test B pre-/postemergence plant response; conditions: for Bermudagrass plant response rating: 8 g ai/ha
Summary of the method: (§1)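 Visual scoring from 0 (no effect) to 100 (complete control) against untreated controls was done 13 to 15 days after greenhouse treatment. Chemicals were formulated in a surfactant-containing non-phytotoxic solvent and applied to soil preemergence or to 1- to 4-leaf (2-18 cm) plants postemergence.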

[2] = test system: blackgrass (Alopecurus myosuroides); test: Test B pre-/postemergence plant response; conditions: for Blackgrass plant response rating: 8 g ai/ha
Summary of the method: as §1

corn (Zea mays) = test: Test B pre-/postemergence plant response
Summary of the method: as §1

[3] = test system: eastern black (E.B.) nightshade (Solanum ptycanthum); test: Test B pre-/postemergence plant response; conditions: Preemergence; for Nightshade, E. B. plant response rating: scale 0 to 100
Summary of the method: as §1

[4] = test system: giant foxtail (Setaria faberii); test: Test B pre-/postemergence plant response
Summary of the method: as §1

[5] = test system: lambsquarters (Chenopodium album); test: Test B pre-/postemergence plant response; conditions: for Lambsquarters plant response rating: postemergence, 0-100 scale; for Plant response rating, Lambsquarters: Postemergence
Summary of the method: as §1

[6] = test system: morningglory (Ipomoea coccinea); test: Test B pre-/postemergence plant response
Summary of the method: as §1

[7] = test system: velvetleaf (Abutilon theophrasti); test: Test B pre-/postemergence plant response
Summary of the method: as §1

wild oat (Avena fatua) = test: Test B pre-/postemergence plant response
Summary of the method: as §1

[8] = test system: yellow nutsedge (Cyperus esculentus); test: Test B pre-/postemergence plant response
Summary of the method: as §1

[9] = test system: canarygrass (Phalaris minor); test: Test B postemergence plant response; conditions: for Plant response rating, Canarygrass: Postemergence, scale 0 to 100
Summary of the method: (§2)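 Visual injury ratings on a 0–100 scale, where 100 means complete control, were made 13 to 15 days after postemergence treatment of greenhouse-grown plants at the 1- to 4-leaf stage.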

[10] = test system: chickweed (Stellaria media); test: Test B postemergence plant response; conditions: for Plant response rating, Chickweed: Postemergence
Summary of the method: as §2

[11] = test system: windgrass (Apera spica-venti); test: Test B postemergence plant response; conditions: for Windgrass plant response rating: postemergence, 0-100 scale; for Plant response rating, Windgrass: Postemergence
Summary of the method: as §2

[12] = test system: winter barley (Hordeum vulgare); test: Test B postemergence plant response; conditions: for Plant response rating, Barley: Postemergence, scale 0 to 100, 0 no effect, 100 complete control
Summary of the method: as §2

[13] = test system: barnyardgrass (Echinochloa crus-galli); test: Test B flooded paddy test plant response
Summary of the method: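 Rice, umbrella sedge, ducksalad and barnyardgrass at 2-leaf stage; pots flooded to 3 cm, compounds applied into paddy water, depth held throughout. Greenhouse 13 to 15 days, then visual rating vs untreated controls on 0–100 scale (0 no effect, 100 complete control); dash means no test result.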

[14] = Postemergence, 16 g ai/ha, scale 0 to 100
[15] = Postemergence, 31 g ai/ha, scale 0 to 100
[16] = Postemergence, 62 g ai/ha, scale 0 to 100, 0 no effect, 100 complete control
[17] = Preemergence, 16 g ai/ha, scale 0 to 100 (0 no effect, 100 complete control)
[18] = Preemergence, 31 g ai/ha, scale 0 to 100 (0 no effect, 100 complete control)
[19] = Preemergence, 62 g ai/ha, 0 to 100 scale, 0 no effect, 100 complete control
[20] = 8 g ai/ha, postemergence, 0-100 scale
[21] = Preemergence, 8 g ai/ha, scale 0 to 100
[22] = Preemergence, 16 g ai/ha, scale 0 to 100
[23] = 62 g ai/ha, scale 0 to 100, 0 no effect, 100 complete control
[24] = 16 g ai/ha, postemergence, 0-100 scale

Structure (SMILES): CCc1cc(-c2ccc(C(F)(F)F)cc2)nn1-c1c(O)cnn(CC)c1=O [Compound 67]
- Bermudagrass plant response rating ([1]; postemergence, 0-100 scale): 0
- Plant response rating, Bermudagrass [1, 14]: 0
- Plant response rating, Bermudagrass [1, 15]: 60
- Plant response rating, Bermudagrass [1, 16]: 75
- Bermudagrass plant response rating ([1]; Preemergence, scale 0 to 100 (0 no effect, 100 complete control)): 0
- Plant response rating, Bermudagrass [1, 17]: 0
- Plant response rating, Bermudagrass [1, 18]: 0
- Plant response rating, Bermudagrass [1, 19]: 0
- Blackgrass plant response rating ([2]; postemergence, 0-100 scale): 85
- Plant response rating, Blackgrass [2, 14]: 100
- Plant response rating, Blackgrass [2, 15]: 100
- Plant response rating, Blackgrass [2, 16]: 100
- Plant response rating, Blackgrass [2, 17]: 100
- Plant response rating, Blackgrass [2, 18]: 100
- Plant response rating, Blackgrass [2, 19]: 100
- Blackgrass plant response rating ([2]; Preemergence, scale 0 to 100): 100
- Corn plant response rating (corn (Zea mays); [20]): 75
- Plant response rating, Corn (corn (Zea mays); [14]): 90
- Plant response rating, Corn (corn (Zea mays); [15]): 100
- Plant response rating, Corn (corn (Zea mays); [16]): 100
- Plant response rating, Corn (corn (Zea mays); [18]): 100
- Plant response rating, Corn (corn (Zea mays); [19]): 100
- Corn plant response rating (corn (Zea mays); [21]): 60
- Corn plant response rating (corn (Zea mays); [22]): 98
- Plant response rating, Nightshade, E. B. ([3]; 31 g ai/ha, scale 0 to 100 (0 no effect, 100 complete control)): 0
- Plant response rating, Nightshade, E. B. ([3]; 62 g ai/ha, 0 to 100 scale, 0 no effect, 100 complete control): 0
- Nightshade, E. B. plant response rating ([3]; 8 g ai/ha): 0
- Nightshade, E. B. plant response rating ([3]; 16 g ai/ha): 0
- Foxtail, Giant plant response rating [4, 20]: 85
- Plant response rating, Foxtail, Giant [4, 14]: 95
- Plant response rating, Foxtail, Giant [4, 15]: 100
- Plant response rating, Foxtail, Giant [4, 16]: 100
- Plant response rating, Foxtail, Giant [4, 18]: 0
- Plant response rating, Foxtail, Giant [4, 19]: 0
- Foxtail, Giant plant response rating [4, 21]: 0
- Foxtail, Giant plant response rating [4, 22]: 0
- Lambsquarters plant response rating ([5]; 8 g ai/ha): 0
- Lambsquarters plant response rating ([5]; 16 g ai/ha): 0
- Plant response rating, Lambsquarters ([5]; 31 g ai/ha, scale 0 to 100): 0
- Plant response rating, Lambsquarters [5, 23]: 0
- Morningglory plant response rating [6, 20]: 0
- Morningglory plant response rating [6, 24]: 0
- Plant response rating, Morningglory [6, 15]: 0
- Plant response rating, Morningglory [6, 16]: 0
- Plant response rating, Morningglory [6, 18]: 0
- Plant response rating, Morningglory [6, 19]: 0
- Morningglory plant response rating [6, 21]: 0
- Morningglory plant response rating [6, 22]: 0
- Velvetleaf plant response rating [7, 20]: 0
- Velvetleaf plant response rating [7, 24]: 0
- Plant response rating, Velvetleaf [7, 15]: 0
- Plant response rating, Velvetleaf [7, 16]: 0
- Plant response rating, Velvetleaf [7, 18]: 0
- Plant response rating, Velvetleaf [7, 19]: 0
- Velvetleaf plant response rating [7, 21]: 0
- Velvetleaf plant response rating [7, 22]: 0
- Oat, Wild plant response rating (wild oat (Avena fatua); [20]): 100
- Oat, Wild plant response rating (wild oat (Avena fatua); [24]): 100
- Plant response rating, Oat, Wild (wild oat (Avena fatua); [15]): 100
- Plant response rating, Oat, Wild (wild oat (Avena fatua); [16]): 100
- Plant response rating, Oat, Wild (wild oat (Avena fatua); [18]): 95
- Plant response rating, Oat, Wild (wild oat (Avena fatua); [19]): 100
- Oat, Wild plant response rating (wild oat (Avena fatua); [21]): 90
- Oat, Wild plant response rating (wild oat (Avena fatua); [22]): 95
- Nutsedge, Yellow plant response rating [8, 20]: 0
- Nutsedge, Yellow plant response rating [8, 24]: 0
- Plant response rating, Nutsedge, Yellow [8, 15]: 0
- Plant response rating, Nutsedge, Yellow [8, 16]: 0
- Plant response rating, Nutsedge, Yellow [8, 18]: 0
- Plant response rating, Nutsedge, Yellow [8, 19]: 0
- Nutsedge, Yellow plant response rating [8, 21]: 0
- Nutsedge, Yellow plant response rating [8, 22]: 0
- Canarygrass plant response rating [9, 20]: 50
- Plant response rating, Canarygrass ([9]; 16 g ai/ha): 80
- Plant response rating, Canarygrass ([9]; 31 g ai/ha): 95
- Chickweed plant response rating [10, 20]: 0
- Plant response rating, Chickweed ([10]; 16 g ai/ha, scale 0 to 100): 0
- Plant response rating, Chickweed ([10]; 31 g ai/ha, scale 0 to 100): 0
- Plant response rating, Chickweed [10, 23]: 0
- Windgrass plant response rating ([11]; 8 g ai/ha): 95
- Windgrass plant response rating ([11]; 16 g ai/ha): 100
- Plant response rating, Windgrass ([11]; 31 g ai/ha, scale 0 to 100): 100
- Plant response rating, Windgrass [11, 23]: 100
- Barley plant response rating [12, 20]: 35
- Plant response rating, Barley ([12]; 16 g ai/ha): 85
- Plant response rating, Barley ([12]; 31 g ai/ha): 95
- Plant response rating, Barnyardgrass ([13]; Flood (flooded paddy test), 62 g ai/ha, scale 0 to 100, 0 no effect, 100 complete control): 25
- Plant response rating, Barnyardgrass ([13]; Flood (flooded paddy test), 125 g ai/ha, scale 0 to 100, 0 no effect, 100 complete control): 35
- Plant response rating, Barnyardgrass ([13]; Flood (flooded paddy test), 250 g ai/ha, scale 0 to 100, 0 no effect, 100 complete control): 50
- Plant response rating, Barnyardgrass ([13]; Flood, 31 g ai/ha, scale 0 to 100): 0
